pKd: −log10 of the molar value.

One test addresses T1, NsdUTPase A22V (Nocardia seriolae, UniProt A0ABF7PKI9, A22V).
T1 sequence (A0ABF7PKI9 1-166 A22V): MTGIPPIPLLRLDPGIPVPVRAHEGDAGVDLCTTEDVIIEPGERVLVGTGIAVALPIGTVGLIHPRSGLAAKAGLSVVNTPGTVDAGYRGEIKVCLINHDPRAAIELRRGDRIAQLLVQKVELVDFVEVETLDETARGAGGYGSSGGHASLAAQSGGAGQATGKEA
As to the kind of experiment: Kd to A22V mutant of NsdUTPase. The format is binding, N. seriolae.

The next test deals with T2, NsdUTPase K93A (Nocardia seriolae, UniProt A0ABF7PKI9, K93A).
T2 sequence (A0ABF7PKI9 1-166 K93A): T1 sequence (A0ABF7PKI9 1-166 A22V)
As to the kind of experiment: Kd to K93A mutant of NsdUTPase. The format is binding, N. seriolae.

For orientation: pKd means −log10 of the Kd, conventionally taken in molar units. Low readings indicate a large Kd, high ones a small Kd. For the compound `C=CCn1c(-c2ccc(Oc3ccccc3)cc2)nc2cc(C)ccc21` [12b, 1-Allyl-5-methyl-2-(4-phenoxyphenyl)-1H-benzo[d]imidazole], the pKd on NsdUTPase A22V is 5.50; at NsdUTPase K93A, 4.39.
For the compound `C=CCn1c(/C=C/c2ccccc2)nc2cc(C(F)(F)F)ccc21` [4b, (E)-1-Allyl-2-styryl-5-(trifluoromethyl)-1H-benzo[d]imidazole], the pKd on NsdUTPase A22V was 5.27; on NsdUTPase K93A it was 4.30.

The values above are taken from publication PMC11486130, “Structure-guided discovery of novel dUTPase inhibitors with anti-Nocardia activity by computational design” (Journal of Enzyme Inhibition and Medicinal Chemistry, 2024).
